B1: daclizumab: anti-IL-2 receptor monoclonal antibody (antibody, chains of the INN, looked up, V domains shown)
VH: QVQLVQSGAEVKKPGSSVKVSCKASGYTFTSYRMHWVRQAPGQGLEWIGYINPSTGYTEYNQKFKDKATITADESTNTAYMELSSLRSEDTAVYYCARGGGVFDYWGQGTLVTVSS
VL: DIQMTQSPSTLSASVGDRVTITCSASSSISYMHWYQQKPGKAPKLLIYTTSNLASGVPARFSGSGSGTEFTLTISSLQPDDFATYYCHQRSTYPLTFGQGTKVEVK

Experiments:
[1] = tested on: pancreatic cancer cell line MIA PaCa-2 and lung cancer cell line H23; assay: Example 9 sensitization of manufactured T cells by lysate of etoposide-treated tumor cells, cytokine re-stimulation read-out (FIG. 37); format: cell-based, human
Protocol: Manufactured T cells for this and all of the following examples were produced by the following procedure: peripheral blood apheresis PBMC product was subjected to Ficoll gradient centrifugation and the resultant cells were plated at 15×10^6 cells/mL; at culture initiation, temsirolimus was added at a final concentration of 2 μM and basiliximab was added at a final concentration of 30 μg/mL; after 24 hours of culture, IFN-α was added to achieve a final concentration of 20,000 IU/mL; no other cytokines were added; no co-stimulation was provided; the manufactured T cells were harvested on day 6 of culture for further use.
The pancreatic cancer cell line MIA PaCa-2 and the lung cancer cell line H23 were treated for 72-hours with etoposide, an inducer of immunogenic cell death, at concentrations of 0.5, 5.0 and 50 μM. Briefly, a cell concentration of 5×10^6 tumor cells/mL was utilized to generate 100 μL of lysate, which was then used to directly stimulate manufactured T cells. That is, there was no separate T cell APC manufacturing step used for this experiment (lysate added directly to effector T cells). The tumor cell lysate was then added to manufactured T cells which were expanded in X-Vivo 20 media containing IL-2 (100 IU/mL), IL-7 (10 ng/mL), and IL-15 (10 ng/mL).

FoxP3 = assay: Intra-cellular FoxP3 expression at day 6 of ex vivo T cell culture (FIG. 1A); format: cell-based
Protocol: (§1) T cells were cultured ex vivo, as indicated, using various ratios of anti-CD3, anti-CD28 beads to T cells (1:1 or 1:12); the mTOR inhibitor temsirolimus (1 μM); without or with the anti-IL-2 receptor monoclonal antibody daclizumab (5 or 50 μg/ml); and either Th1 polarization cytokines (IFN-alpha; 10,000 IU/ml) or control regulatory T cell polarization (IL-2 plus TGF-β). At day 6 of culture, the T cells were evaluated for intra-cellular expression of the regulatory T cell transcription factor FoxP3 and the Th1 transcription factor TBET. (FIGS. 1A-1B).

[2] = tested on: IFN-γ and TNF-α secretion by CD4+ and CD8+ T cells; assay: Day 6 / day 13 cytokine secretion after 3:1 3/28 bead co-stimulation, Luminex (FIGS. 3A-3B); format: cell-based
Protocol: To evaluate this, we tested cytokine secretion potential of the manufactured T cells at the end of cell culture (day 6) and then again one week after ex vivo expansion after maximal co-stimulation (3/28 bead-to-T cell ratio, 3:1) and propagation in media devoid of any inhibitors. In FIGS. 3A-3B, CD4^+ and CD8^+ T cells were purified and cultured for 6-days either with or without a 16-hr interval of pre-incubation prior to co-stimulation (1:1 ratio of 3/28 beads-to-T cells). As indicated, temsirolimus was added at concentrations of either 1.0 or 0.1 μM; all cultures were supplemented with IFN-α (10,000 IU/ml) and daclizumab (50 μg/ml). On day 6 of culture, the resultant T cells were co-stimulated for 24 hr using a 3:1 ratio of 3/28 beads; the supernatant was tested for cytokine content by Luminex assay (results are described as pg per ml of cytokine secreted per million cells per 24 hr). […] N.A, abbreviation indicates not applicable (insufficient T cell yield to perform assay).

TBET = assay: Intra-cellular TBET expression at day 6 of ex vivo T cell culture (FIG. 1B); format: cell-based
Protocol: as §1

phospho-RAPTOR = assay: Western blot of phospho-RAPTOR after 16-hr pre-incubation (FIG. 12); format: cell-based, human; details: high-dose temsirolimus compared to low-dose temsirolimus or high-dose rapamycin
Protocol: (§2) For FIGS. 11-13, human CD4^+ and CD8^+ T cells were cultured using a 16-hr pre-incubation interval prior to the addition of 3/28 beads at the reduced ratio of 1:3 beads-to-T cells. As indicated in FIGS. 11-13, the various T cell cultures received different methods of mTOR inhibition (rapamycin at 1.0 μM; temsirolimus at 1.0 or 0.1 μM), different conditions of exogenous IL-2 addition, and different conditions relative to addition of the anti-IL-2 receptor monoclonal antibody, daclizumab. After the 16-hr pre-incubation interval, cells were harvested from the T cell cultures, protein was isolated, and p62 (FIG. 11), phospho-RAPTOR (FIG. 12), or BIM (FIG. 13) and the housekeeper gene β-actin were quantified by western blot.

p62 = assay: Western blot of p62 after 16-hr pre-incubation (FIG. 11); format: cell-based, human
Protocol: as §2

[3] = temsirolimus plus daclizumab under TREG-permissive conditions: bead ratio 1:12, no IFN-α, exogenous IL-2 plus TGF-β

Row | Molecule | sensitizing manufactured T cells to cytokine secretion in response to repeat exposure to lysate ([1]; 72-hour incubation of MIA PaCa-2 or H23 with etoposide 0.5 to 5.0 μM) | T cell sensitization ([1]; etoposide at the higher concentration of 50 μM) | FoxP3 expression (FoxP3; exogenous IL-2 added in combination with IFN-α) | T cell expression of FoxP3 (FoxP3; temsirolimus 1.0 μM with IFN-α, relative to day 0 input T cell population) | FoxP3 expression (FoxP3; [3]) | day 13 T cell IFN-γ and TNF-α secretion ([2]; pre-incubation plus high-dose temsirolimus, after one week without inhibitors) | day 6 T cell cytokine secretion potential ([2]; temsirolimus 0.1 μM) | day 6 T cell IFN-γ and TNF-α secretion after 24 hr of maximal co-stimulation ([2]; temsirolimus 1.0 μM, with or without overnight pre-incubation) | expression of TBET (TBET; combination of temsirolimus and an anti-IL-2 receptor monoclonal antibody) | phosphorylated form of RAPTOR (phospho-RAPTOR) | autophagy marker p62 (p62; pre-incubation, 1:3 beads, daclizumab, rapamycin 1 μM or temsirolimus 1.0 or 0.1 μM) | FoxP3 expression, dose-response (FoxP3; antibody at 50 μg/ml versus 5 μg/ml) | FoxP3 expression (FoxP3; blockade of the IL-2 receptor added to temsirolimus and IFN-α) | TBET expression, dose response (TBET; 50 μg/ml versus 5 μg/ml) | autophagy marker p62 (p62; IL-2 receptor blockade eliminated from the regimen)
1 | COc1cc([C@@H]2c3cc4c(cc3[C@@H](O[C@@H]3O[C@@H]5CO[C@@H](C)O[C@H]5[C@H](O)[C@H]3O)[C@H]3COC(=O)[C@H]23)OCO4)cc(OC)c1O [etoposide] | effective | not effective |  |  |  |  |  |  |  |  |  |  |  |  | 
2 | CO[C@H]1C[C@@H]2CC[C@@H](C)[C@@](O)(O2)C(=O)C(=O)N2CCCC[C@H]2C(=O)O[C@H]([C@H](C)C[C@@H]2CC[C@@H](OC(=O)C(C)(CO)CO)[C@H](OC)C2)CC(=O)[C@H](C)/C=C(\C)[C@@H](O)[C@@H](OC)C(=O)[C@H](C)C[C@H](C)/C=C/C=C/C=C/1C [temsirolimus] |  |  | not effective | reduced | not effective | highest | only partially reduced | very low levels | increased expression of TBET | lower levels of phospho-RAPTOR | autophagy could be realized |  |  |  | 
3 | B1 |  |  |  |  | not effective |  |  |  |  |  |  | more effective | further reduced | higher degree | substantially blunted the induction of autophagy

Source: patent publication US12680074B2, “Antigen presenting T cells, sensitized, manufactured T cells and methods of treatment using the same” (RAPA THERAPEUTICS, LLC, priority 2020, dated 2026)
